Experimental data: patent publication US20210070748A1, “INHIBITORS OF BRUTONS TYROSINE KINASE” (Pharmacyclics LLC, priority 2015, published 2021)

Experiments:
[1] = target: T1, ITK (Homo sapiens, UniProt Q08881); test: Inhibition of a panel of kinases, in vitro HotSpot kinase assay: ITK; format: biochemical; settings: Table 13, A compounds; 1 μM ATP
T1 sequence (Q08881 1-620): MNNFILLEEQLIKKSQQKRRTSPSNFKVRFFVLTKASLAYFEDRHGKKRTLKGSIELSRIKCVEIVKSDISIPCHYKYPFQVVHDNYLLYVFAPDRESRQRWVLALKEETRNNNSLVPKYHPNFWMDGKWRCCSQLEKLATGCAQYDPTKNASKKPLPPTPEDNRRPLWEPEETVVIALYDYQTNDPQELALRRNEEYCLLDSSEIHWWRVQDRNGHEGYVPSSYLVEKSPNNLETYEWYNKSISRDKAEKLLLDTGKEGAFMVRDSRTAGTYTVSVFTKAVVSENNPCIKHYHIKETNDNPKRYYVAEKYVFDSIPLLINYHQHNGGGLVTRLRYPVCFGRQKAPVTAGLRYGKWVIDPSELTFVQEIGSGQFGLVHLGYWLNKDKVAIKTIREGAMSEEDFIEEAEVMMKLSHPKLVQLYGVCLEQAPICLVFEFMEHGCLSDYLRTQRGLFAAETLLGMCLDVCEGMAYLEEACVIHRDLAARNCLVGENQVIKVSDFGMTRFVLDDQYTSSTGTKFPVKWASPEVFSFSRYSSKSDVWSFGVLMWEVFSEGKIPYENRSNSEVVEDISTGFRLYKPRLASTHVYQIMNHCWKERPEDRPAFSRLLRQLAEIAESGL
Description: (§1) The degree of inhibition of a panel of kinases is determined using the in vitro HotSpot kinase assay (purified enzymes, ^33P-ATP, an appropriate substrate and 1 μM ATP).

[2] = target: T2, TEC (Homo sapiens, UniProt P42680); test: Inhibition of a panel of kinases, in vitro HotSpot kinase assay: TEC; format: biochemical; settings: Table 13, A compounds; 1 μM ATP
T2 sequence (P42680 1-631): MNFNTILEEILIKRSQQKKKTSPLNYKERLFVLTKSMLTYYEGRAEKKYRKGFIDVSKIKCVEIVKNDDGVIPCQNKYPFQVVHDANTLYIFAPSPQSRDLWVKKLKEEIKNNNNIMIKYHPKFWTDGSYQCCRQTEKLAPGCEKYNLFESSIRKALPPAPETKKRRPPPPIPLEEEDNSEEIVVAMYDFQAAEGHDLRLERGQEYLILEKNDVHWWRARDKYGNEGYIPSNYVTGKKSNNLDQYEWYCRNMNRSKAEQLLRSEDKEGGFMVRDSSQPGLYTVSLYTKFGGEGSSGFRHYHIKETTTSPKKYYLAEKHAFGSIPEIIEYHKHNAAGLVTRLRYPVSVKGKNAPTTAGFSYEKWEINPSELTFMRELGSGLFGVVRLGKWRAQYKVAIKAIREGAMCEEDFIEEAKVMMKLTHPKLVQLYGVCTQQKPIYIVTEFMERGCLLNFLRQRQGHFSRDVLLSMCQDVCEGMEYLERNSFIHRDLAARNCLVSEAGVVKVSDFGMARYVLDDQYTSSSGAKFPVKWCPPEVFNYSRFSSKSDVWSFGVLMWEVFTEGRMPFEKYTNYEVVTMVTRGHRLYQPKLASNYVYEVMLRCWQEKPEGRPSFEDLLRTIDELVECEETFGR
Description: as §1

## Cn1cc(Nc2nc(N3CCC[C@@H](n4ccc5cc(C6CC6)ccc5c4=O)C3)cnc2C(N)=O)cn1 [Example A-167, 5-[(3R)-3-(6-cyclopropyl-1-oxo-1,2-dihydroisoquinolin-2-yl)piperidin-1-yl]-3-[(1-methyl-1H-pyrazol-4-yl)amino]pyrazine-2-carboxamide]
[1]
  IC50: > 10 µM
[2]
  IC50: 0.01 to 0.1 µM

## C[C@@H]1[C@H](NC(=O)c2ccc(C3CC3)cc2)CCCN1c1cnc(C(N)=O)c(Nc2cnn(C)c2)n1 [Example A-169, 5-[(2R,3R)-3-(4-cyclopropylbenzamido)-2-methylpiperidin-1-yl]-3-[(1-methyl-1H-pyrazol-4-yl)amino]pyrazine-2-carboxamide]
[1]
  IC50: 1 to 10 µM
[2]
  IC50: 0.01 to 0.1 µM

## C[C@@H]1[C@H](NC(=O)c2ccc(C3CC3)cc2)CCCN1c1cnc(C(N)=O)c(Nc2ccc(N3CCN(C)CC3)cc2)n1 [Example A-170, 5-[(2R,3R)-3-(4-cyclopropylbenzamido)-2-methylpiperidin-1-yl]-3-{[4-(4-methylpiperazin-1-yl)phenyl]amino}pyrazine-2-carboxamide]
[1]
  IC50: 0.1 to 1 µM
[2]
  IC50: 0.01 to 0.1 µM

## C[C@@H]1[C@H](NC(=O)c2ccc(C3CC3)cc2F)CCCN1c1cnc(C(N)=O)c(Nc2ccc(N3CCN(C)CC3)c(F)c2)n1 [Example A-171, 5-[(2R,3R)-3-(4-cyclopropyl-2-fluorobenzamido)-2-methylpiperidin-1-yl]-3-{[3-fluoro-4-(4-methylpiperazin-1-yl)phenyl]amino}pyrazine-2-carboxamide]
[1]
  IC50: 0.1 to 1 µM
[2]
  IC50: 0.01 to 0.1 µM

## C[C@@H]1[C@H](NC(=O)c2ccc(C3CC3)cc2)CCCN1c1cnc(C(N)=O)c(Nc2cnn(C3CCN(C)CC3)c2)n1 [Example A-173]
[1]
  IC50: 0.1 to 1 µM
[2]
  IC50: 0.01 to 0.1 µM

## C[C@@H]1[C@H](NC(=O)c2ccc(C3CC3)cc2F)CCCN1c1cnc(C(N)=O)c(Nc2ccc(C3(C)CCN(C4CC4)CC3)cc2)n1 [Example A-174, 5-[(2R,3R)-3-(4-cyclopropyl-2-fluorobenzamido)-2-methylpiperidin-1-yl]-3-{[4-(1-cyclopropyl-4-methylpiperidin-4-yl)phenyl]amino}pyrazine-2-carboxamide]
[1]
  IC50: 0.1 to 1 µM
[2]
  IC50: 0.01 to 0.1 µM

## C[C@@H]1[C@H](NC(=O)c2ccc(C3CC3)cc2F)CCCN1c1cnc(C(N)=O)c(Nc2ccc(S(=O)(=O)N3CCCC3)cc2)n1 [Example A-175, 5-[(2R,3R)-3-(4-cyclopropyl-2-fluorobenzamido)-2-methylpiperidin-1-yl]-3-{[4-(pyrrolidine-1-sulfonyl)phenyl]amino}pyr-azine-2-carboxamide]
[1]
  IC50: > 10 µM
[2]
  IC50: 0.1 to 1 µM

## C[C@@H]1[C@H](NC(=O)c2ccc(C3CC3)cc2F)CCCN1c1cnc(C(N)=O)c(Nc2ccc(N3CCN(C)C[C@@H]3C)cc2)n1 [Example A-176, 5-[(2R,3R)-3-(4-cyclopropyl-2-fluorobenzamido)-2-methylpiperidin-1-yl]-3-({4-[(2S)-2,4-dimethylpiperazin-1-yl]phenyl}amino)pyrazine-2-carboxamide]
[1]
  IC50: 0.1 to 1 µM
[2]
  IC50: 0.01 to 0.1 µM

## C[C@@H]1[C@H](NC(=O)c2ccc(C3CC3)cc2F)CCCN1c1cnc(C(N)=O)c(Nc2ccc(N3CCN(C)CC3)nc2)n1 [Example A-177, 5-[(2R,3R)-3-(4-cyclopropyl-2-fluorobenzamido)-2-methylpiperidin-1-yl]-3-{[6-(4-methylpiperazin-1-yl)pyridin-3-yl]amino}pyrazine-2-caoxamide]
[1]
  IC50: 1 to 10 µM
[2]
  IC50: 0.1 to 1 µM

## CN1CCC(n2cc(Nc3nc(N4CCC[C@@H](n5ccc6cc(C7CC7)ccc6c5=O)C4)cnc3C(N)=O)cn2)CC1 [Example A-178, 5-[(3R)-3-(6-cyclopropyl-1-oxo-1,2-dihydroisoquinolin-2-yl)piperidin-1-yl]-3-{[1-(1-methylpiperidin-4-yl)-1H-pyrazol-4-yl]amino}pyrazine-2-carboxamide]
[1]
  IC50: 0.1 to 1 µM
[2]
  IC50: 0.01 to 0.1 µM

## C[C@@H]1[C@H](NC(=O)c2ccc(C3CC3)cn2)CCCN1c1cnc(C(N)=O)c(Nc2ccc(N3CCN(C)CC3)cc2)n1 [Example A-179, 5-[(2R,3R)-3-(5-cyclopropyl-pyridine-2-amido)-2-methylpiperidin-1-yl]-3-{[4-(4-methylpiperazin-1-yl)phenyl]amino}pyrazine-2-carboxamide]
[1]
  IC50: 0.1 to 1 µM
[2]
  IC50: 0.01 to 0.1 µM

## C[C@@H]1[C@H](NC(=O)c2ccc(C3CC3)cc2Cl)CCCN1c1cnc(C(N)=O)c(Nc2ccc(N3CCN(C)CC3)cc2)n1 [Example A-180, 5-[(2R,3R)-3-(2-chloro-4-cyclopropylbenzamido)-2-methylpiperidin-1-yl]-3-{[4-(4-methylpiperazin-1-yl)phenyl]amino}pyrazine-2-carboxamide]
[1]
  IC50: 0.1 to 1 µM
[2]
  IC50: 0.01 to 0.1 µM

## C[C@@H]1[C@H](NC(=O)c2ccc(C3CC3)cc2)CCCN1c1cnc(C(N)=O)c(Nc2cc(CN3CCCCC3)ns2)n1 [Example A-181, 5-[(2R,3R)-3-(4-cyclopropylbenzamido)-2-methylpiperidin-1-yl]-3-{[3-(piperidin-1-ylmethyl)-1,2-thiazol-5-yl]amino}pyrazine-2-carboxamide]
[1]
  IC50: 0.01 to 0.1 µM
[2]
  IC50: 0.01 to 0.1 µM

## C[C@@H]1[C@H](NC(=O)c2ccc(C3CC3)cc2)CCCN1c1cnc(C(N)=O)c(Nc2cnn(CCN(C)C)c2)n1 [Example A-182, 5-[(2R,3R)-3-(4-cyclopropylbenzamido)-2-methylpiperidin-1-yl]-3-({1-[2-(dimethylamino)ethyl]-1H-pyrazol-4-yl}amino)pyrazine-2-carboxamide]
[1]
  IC50: 1 to 10 µM
[2]
  IC50: 0.1 to 1 µM

## Cc1cc(Nc2nc(N3CCC[C@@H](NC(=O)N4Cc5ccccc5C4=O)C3)cnc2C(N)=O)sn1 [Example A-183, N-[(3R)-1-{5-carbamoyl-6-[(3-methyl-1,2-thiazol-5-yl)amino]pyrazin-2-yl}piperidin-3-yl]-1-oxo-2,3-dihydro-1H-isoindole-2-carboxamide]
[1]
  IC50: 0.01 to 0.1 µM
[2]
  IC50: 0.01 to 0.1 µM

## C[C@@H]1[C@H](NC(=O)c2ccc(C(C)(C)C)cc2)CCCN1c1cnc(C(N)=O)c(Nc2ccc(N3CCN(C)CC3)cc2)n1 [Example A-184, 5-[(2R,3R)-3-(4-tert-butylbenzamido)-2-methylpiperidin-1-yl]-3-{[4-(4-methylpiperazin-1-yl)phenyl]amino}pyrazine-2-carboxamide]
[1]
  IC50: 0.1 to 1 µM
[2]
  IC50: 0.01 to 0.1 µM

## COCCN(C)Cc1cc(Nc2nc(N3CCC[C@@H](NC(=O)c4ccc(C5CC5)cc4)[C@H]3C)cnc2C(N)=O)sn1 [Example A-185, 5-((2R,3R)-3-(4-cyclopropylbenzamido)-2-methylpiperidin-1-yl)-3-(3-(((2-methoxyethyl)(meth-yl)amino)meth-yl)isothiazol-5-ylamino)pyr-azine-2-carboxamide]
[1]
  IC50: 0.1 to 1 µM
[2]
  IC50: 0.1 to 1 µM

## COCCn1cc(Nc2nc(N3CCC[C@@H](NC(=O)c4ccc(C5CC5)cc4)[C@H]3C)cnc2C(N)=O)cn1 [Example A-186, 5-((2R,3R)-3-(4-cyclopropylbenzamido)-2-methylpiperidin-1-yl)-3-(1-(2-methoxylethyl)-1H-pyrazol-4-ylamino)pyrazine-2-carboxamide]
[1]
  IC50: 0.1 to 1 µM
[2]
  IC50: 0.1 to 1 µM

## Cn1cc(Nc2nc(N3C[C@@H](NC(=O)c4ccc(C5CC5)cc4)CC(F)(F)C3)cnc2C(N)=O)cn1 [Example A-187, (S)-5-(5-(4-cyclopropylbenzamido)-3,3-difluoropiperidin-1-yl)-3-(1-methyl-1H-pyrazol-4-ylamino)pyrazine-2-carboxamide]
[1]
  IC50: > 10 µM
[2]
  IC50: 1 to 10 µM

## Cn1cc(Nc2nc(N3C[C@H](NC(=O)c4ccc(C5CC5)cc4)CC(F)(F)C3)cnc2C(N)=O)cn1 [Example A-188, (R)-5-(5-(4-cyclopropylbenzamido)-3,3-difluoropiperidin-1-yl)-3-(1-methyl-1H-pyrazol-4-ylamino)pyrazine-2-carboxamide]
[1]
  IC50: 1 to 10 µM
[2]
  IC50: 0.1 to 1 µM

## C[C@@H]1[C@H](NC(=O)c2ccc(C3CC3)c(Cl)c2)CCCN1c1cnc(C(N)=O)c(Nc2ccc(N3CCN(C)CC3)cc2)n1 [Example A-189, 5-((2R,3R)-3-(3-chloro-4-cyclopropylbenzamido)-2-methylpiperidin-1-yl)-3-(4-(4-methylpiperazin-1-yl)phenylamino)pyrazine-2-carboxamide]
[1]
  IC50: 0.1 to 1 µM
[2]
  IC50: 0.1 to 1 µM
